Measured values published in article PMC5054527, “Mechanism of high affinity inhibition of the human urate transporter URAT1” (Scientific Reports, 2016).
Changes are numbered by the printed parent chain. Where two headings read alike, the source gives them in different places.

Legend:
[1] = molecular target: T1, h-F365Y hURAT1 point mutant (Homo sapiens, UniProt Q96S37, F365Y); assay: URAT1 uric acid transport activity assay; assay type: cell-based; details: for fold reduced affinity of h-F365Y compared to hURAT1: from IC50 values; for IC50: h-F365Y, 100 μM 14C-uric acid
T1 sequence (Q96S37 1-553 F365Y): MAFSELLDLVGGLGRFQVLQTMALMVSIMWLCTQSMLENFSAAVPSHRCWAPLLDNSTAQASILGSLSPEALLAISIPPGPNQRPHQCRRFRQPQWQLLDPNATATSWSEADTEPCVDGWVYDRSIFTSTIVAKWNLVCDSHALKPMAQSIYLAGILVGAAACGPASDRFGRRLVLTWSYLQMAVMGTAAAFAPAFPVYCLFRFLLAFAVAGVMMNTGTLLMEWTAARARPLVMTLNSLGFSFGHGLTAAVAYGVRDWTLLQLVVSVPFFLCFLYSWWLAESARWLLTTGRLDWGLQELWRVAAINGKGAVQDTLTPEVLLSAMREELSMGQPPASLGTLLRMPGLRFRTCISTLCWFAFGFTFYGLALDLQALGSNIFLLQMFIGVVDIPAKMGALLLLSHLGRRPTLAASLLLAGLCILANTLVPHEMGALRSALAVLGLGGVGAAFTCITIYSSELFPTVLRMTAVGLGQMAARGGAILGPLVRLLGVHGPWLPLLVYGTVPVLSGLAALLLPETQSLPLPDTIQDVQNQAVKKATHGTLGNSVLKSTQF

[2] = molecular target: T2, r-Y365F/M481I rURAT1 double point mutant (Rattus norvegicus, UniProt Q3ZAV1, M481I/Y365F); assay: URAT1 uric acid transport activity assay; assay type: cell-based
T2 construct: hURAT1 and rURAT1 are 553 amino acid proteins with 12 transmembrane segments; expressed in transfected cells; host or cells: HEK-293T
Method in brief: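 Rat URAT1 point or double mutants in pCMV6/neo were transiently transfected into cells and assayed the next day. Compounds were preincubated for 5 minutes, then 100 μM 14C-uric acid uptake was measured over 10 minutes in triplicate. IC50 came from four-parameter variable-slope nonlinear regression.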

[3] = molecular target: T3, human URAT1 (hURAT1 WT) (Homo sapiens, UniProt Q96S37); assay: URAT1 uric acid transport activity assay; assay type: cell-based; details: for IC50: hURAT1 WT, 100 μM 14C-uric acid; for fold higher affinity (potency) of hURAT1 compared to rURAT1: ratio of IC50 values, rURAT1 vs hURAT1
T3 sequence (Q96S37 1-553): T1 sequence (Q96S37 1-553 F365Y) with Y365F

[4] = molecular target: T4, h-S35N hURAT1 point mutant (Homo sapiens, UniProt Q96S37, S35N); assay: URAT1 uric acid transport activity assay; assay type: cell-based; details: for fold reduced sensitivity/affinity of h-S35N compared to hURAT1: from IC50 values; for IC50: h-S35N, 100 μM 14C-uric acid
T4 sequence (Q96S37 1-553 S35N): T1 sequence (Q96S37 1-553 F365Y) with S35N, Y365F

[5] = test system: hURAT1; details: cited from earlier work

T2 sequence (Q3ZAV1 whole entry Y365F/M481I): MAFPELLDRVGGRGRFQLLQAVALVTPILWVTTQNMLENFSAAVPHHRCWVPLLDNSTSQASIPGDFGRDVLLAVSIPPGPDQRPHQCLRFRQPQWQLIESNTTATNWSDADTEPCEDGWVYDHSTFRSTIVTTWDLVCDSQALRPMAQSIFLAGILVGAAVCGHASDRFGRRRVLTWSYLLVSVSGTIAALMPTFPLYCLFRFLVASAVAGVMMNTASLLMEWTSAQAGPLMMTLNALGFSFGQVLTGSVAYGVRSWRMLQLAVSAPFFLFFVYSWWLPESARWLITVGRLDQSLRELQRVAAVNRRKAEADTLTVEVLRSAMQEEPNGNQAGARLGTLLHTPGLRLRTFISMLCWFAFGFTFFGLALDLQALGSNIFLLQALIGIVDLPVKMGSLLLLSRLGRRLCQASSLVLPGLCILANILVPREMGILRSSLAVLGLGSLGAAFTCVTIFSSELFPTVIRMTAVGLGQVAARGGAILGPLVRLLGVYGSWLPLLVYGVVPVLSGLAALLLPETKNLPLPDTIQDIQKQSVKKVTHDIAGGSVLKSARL

| Structure (SMILES) | fold reduced affinity of h-F365Y compared to hURAT1 [1] [fold] | IC50 ([1]; HEPES pH 7.3) [µM] | IC50 ([2]; r-Y365F/M481I, HEPES pH 7.3, 100 μM 14C-uric acid, read-out: IC50 (uric acid transport)) [µM] | IC50 ([3]; HEPES pH 7.3) [µM] | fold higher affinity (potency) of hURAT1 compared to rURAT1 [3] | fold reduced sensitivity/affinity of h-S35N compared to hURAT1 [4] [fold] | IC50 ([4]; HEPES pH 7.3) [µM] | IC50 ([1]; MES pH 5.5) [µM] | IC50 ([3]; MES pH 5.5) [µM] | IC50 ([4]; MES pH 5.5) [µM] | Km ([5]; read-out: Km for the substrate urate) [µM] | IC50 [2] [µM] | IC50 [5] [µM] |
| --- | --- | --- | --- | --- | --- | --- | --- | --- | --- | --- | --- | --- | --- |
| O=C1C(CC[S+]([O-])c2ccccc2)C(=O)N(c2ccccc2)N1c1ccccc1 (stereo not shown) [sulfinpyrazone] | 5 | 163 ± 13 | 138 ± 25 | 32 | 21 fold | 7 | 233 ± 54 | – | – | – | – | – | – |
| O=c1[nH]c(=O)c2[nH]c(=O)[nH]c2[nH]1 [uric acid] | 2.5 | – | – | – | greater than 10 fold | 2.1 | – | 609 | 246 | 507 | 371 | – | – |
| CCc1oc2ccccc2c1C(=O)c1cc(Br)c(O)c(Br)c1 [benzbromarone] | – | – | – | – | – | – | – | – | – | – | – | 3.5 ± 0.39 | […] |
